One compound from article PMC5680178, “D-Cateslytin, a new antimicrobial peptide with therapeutic potential” (Scientific Reports, 2017) can be followed below.

Values after ≈ are worked out from the molar mass of the structure shown.

For assay [1], the system named is Fusobacterium nucleatum (ATCC 49256). The note with it: combination D-Ctl + amoxicillin.
Method: (§1) According to the European Committee on Antimicrobial Susceptibility Testing[20], the effect of a combination between two antibacterial compounds can be evaluated by their FICI (Fractional Inhibitory Concentration Index). The FICI consists of the sum of the FICs of both antibacterial agents: FIC index = FICantimicrobial + FICD-Ctl. For each compound, the FIC was determined as the ratio between the MIC of the compound in combination (MICcombination) and the MIC of the compound acting alone (MICalone). On the basis of their FIC index, each combination was categorized as synergistic (≤0.5), additive (>0.5 to 1), indifferent (>1 to <4) or antagonistic (≥4).
(§2) Microorganisms were cultured according to the manufacturer’s or the owner’s instructions in their respective media: Luria Bertani broth (Sigma) was used for E. coli strains, Mueller Hinton broth (Difco) for S. aureus strains and Anaerobe Basal broth (Oxoid) for F. nucleatum, P. intermedia and P. micra.
(§3) The MIC was determined by broth microdilution. An overnight culture of each bacterial strain was diluted (approximately to OD600 = 0,001) and microorganisms were plated in 96-well plates in the presence of different concentrations of antimicrobials, D-Ctl or L-Ctl alone or in combination. Three technical replicates were performed for each condition. After 24 hours of incubation, the microorganism growth was assessed by optical density OD600 using a Multiskan™ EX microplate spectrophotometer (Thermo Fisher Scientific). […] Each experiment was performed with at least three biological replicates.
Assay [2] deals with Prevotella intermedia (ATCC 49046). The note with it: combination D-Ctl + amoxicillin.
Method: as §1, §2, §3
Assay [3] relates to Parvimonas micra (ATCC 33270). The note with it: combination D-Ctl + amoxicillin.
Method: as §1, §2, §3
Assay [4] has as its system Fusobacterium nucleatum (ATCC 49256). As to the kind of experiment: microbe, parasite or virus in culture. The note with it: ATCC49256, 24 h, read-out: MIC (MIC alone).
Method: as §1, §2, §3
Assay [5] concerns Prevotella intermedia (ATCC 49046). As to the kind of experiment: microbe, parasite or virus in culture. The following applies: ATCC49046, 24 h, read-out: MIC (MIC alone).
Method: as §1, §2, §3
Assay [6] deals with Parvimonas micra (ATCC 33270). Description: microbe, parasite or virus in culture. The following applies: ATCC33270, 24 h, read-out: MIC (MIC alone).
Method: as §1, §2, §3

`CC1(C)S[C@@H]2[C@H](NC(=O)[C@H](N)c3ccc(O)cc3)C(=O)N2[C@H]1C(=O)O` [Amoxicillin]: the values for the FIC in assay [1] (MICcombination/MICalone), in assay [2] (MICcombination/MICalone) and in assay [3] (MICcombination/MICalone) were 0.5, 0.25 and 0.25, respectively. Further, the Effect result is “Additive” in assay [1] (category by FIC index), “Synergistic” in assay [2] (category by FIC index) and “Synergistic” in assay [3] (category by FIC index). Moreover, the FICI in assay [1] (sum of both FICs) is on record as 1.0; in assay [2] (sum of both FICs), 0.5; in assay [3] (sum of both FICs), 0.5. Besides, the MIC worked out at 0.6 µg/mL (≈ 1.64 µM) in assay [4], 0.5 µg/mL (≈ 1.37 µM) in assay [5] and 0.5 µg/mL (≈ 1.37 µM) in assay [6].
